Results on 72 compounds are retold here after patent US9375005B2, “5-halogenopyrazole indanyl carboxamides” (BAYER CROPSCIENCE AG, priority 2012, dated 2016).

One data set relates to Puccinia recondita. As to the kind of experiment: In vivo preventive test on Puccinia recondita (brown rust on wheat). Conditions: dose 500 ppm; wheat plants sprayed 24 h before contamination; grading 12 days after contamination. As for the experimental part:
Plants, used as controls, are treated with the mixture of acetone/tween/DMSO/water not containing the active material. After 24 hours, the plants are contaminated by spraying the leaves with an aqueous suspension of Puccinia recondita spores (100 000 spores per ml). […] Grading (% of efficacy) is carried out 12 days after the contamination, in comparison with the control plants.

Data set [1] can be described thus: Measurement of log P values by HPLC on reversed phase columns (EEC directive 79/831 Annex V.A8). It is filed as physicochemical.
The test system of a further data set is Uromyces appendiculatus. As to the kind of experiment: In vivo preventive test on Uromyces appendiculatus (bean rust). The settings on record: dose 500 ppm; bean plants sprayed 24 h before contamination; grading 11 days after contamination. On the procedure:
Bean plants (“Saxa” variety), sown in starter cups on a 50/50 peat soil-pozzolana substrate and grown at 24° C., are treated at the 2-leaf stage (9 cm height) by spraying with the active ingredient prepared as described above. Plants, used as controls, are treated with the mixture of acetone/tween/DMSO/water not containing the active material. After 24 hours, the plants are contaminated by spraying the leaves with an aqueous suspension of Uromyces appendiculatus spores (150 000 spores per ml). […] Grading (% of efficacy) is carried out 11 days after the contamination, in comparison with the control plants.

[2] abbreviates: method [a]: LC-MS at pH 2.7, 0.1% formic acid in water / acetonitrile, gradient 10% to 95% acetonitrile.
Setting [3] is: method [b]: LC-MS at pH 7.8, 0.001 molar ammonium hydrogen carbonate in water, gradient 10% to 95% acetonitrile.

On to `CON=C1c2cccc(NC(=O)c3c(C(F)F)nn(C)c3Cl)c2CC1(C)C` (mixture of isomers) [Example 59], for which the Eff. % in the data set with Puccinia recondita is 86%.

In the case of `CC(C)C1Cc2cccc(N)c2C1C` (mixture of isomers) [III-a-24], the logP in data set [1] (setting [2]) is 2.9[a]. On to `CCC1Cc2cccc(N)c2C1` (racemic) [III-a-16], for which, in data set [1] (setting [2]), the logP was 1.76[a].

Take `CC(C)CC1CCc2c(N)cccc21` (racemic) [III-a-22]: the logP in data set [1] (setting [2]) was 2.64[a]. With `CC1CC2(CC2)c2cccc(N)c21` (racemic) [III-a-25], the logP in data set [1] (setting [2]) is 1.93[a]. Same read-out and setting: the same measure for `CCC1(C)CCc2c(N)cccc21` (racemic) [III-a-26]: 1.88[a]; for `CCCON=C1CC(C)c2c(N)cccc21.Cl` (racemic) [III-a-29]: 2.78[a]. Consider `CCON=C1CC(C)c2c(N)cccc21.Cl` (racemic) [III-a-30], for which the logP in data set [1] (setting [2]) is 2.26[a]. Consider `CON=C1CC(C)c2c(N)cccc21.Cl` (racemic) [III-a-31], for which the logP in data set [1] (setting [2]) is 1.76[a]. Turning to `CC(C)(C)C1CCc2c(N)cccc21` (racemic) [III-a-35], the logP in data set [1] (setting [2]) is 2.4[a]. Still for that read-out and setting: then `CCC1Cc2c(N)cccc2C1(C)C` (racemic) [III-a-40], with 2.47[a]; and `CCC1(CC)Cc2c(N)cccc2C1C` (racemic) [III-a-42], with 2.63[a]; and `CC1CC2(CCCC2)c2cccc(N)c21` (racemic) [III-a-43], with 2.86[a]. As to `CCCON=C1CCc2c(Br)cccc21` (single isomer, unassigned) [III-b-7], the logP in data set [1] (setting [2]) is 5.14[a].

Take `CCON=C1CCc2c(Br)cccc21` (single isomer, unassigned) [III-b-10]: the logP in data set [1] (setting [2]) is 4.49[a]. On the same count and under the same terms, the same measure for `CCCON=C1CCc2c(Br)cccc21` (single isomer, unassigned) [III-b-22]: 5.56[a]; for `CCON=C1CCc2c(Br)cccc21` (single isomer, unassigned) [III-b-23]: 4.9[a]. The compound `CC1CC2(CC2(Cl)Cl)c2cccc(NC(=O)c3c(C(F)F)nn(C)c3F)c21` (centres unmarked) [Example 1] yielded an Eff. % with Uromyces appendiculatus of 100%. The logP in data set [1] (method marked [a]) was 3.68[a]. On to `CC1Cc2cccc(NC(=O)c3c(C(F)F)nn(C)c3Cl)c2C1` (centres unmarked) [Example 8], for which the Eff. % in the data set on Puccinia recondita was determined as 94%; in the data set on Uromyces appendiculatus, 100%. Besides, in data set [1] (method marked [a]), the logP was 3.67[a]. Regarding `CC1Cc2c(NC(=O)c3c(C(F)F)nn(C)c3Br)cccc2C1(C)C` (centres unmarked) [Example 13], the Eff. % with Puccinia recondita is reported as 75%; in the data set with Uromyces appendiculatus, 79%. The logP in data set [1] (method marked [a]) was 4.16[a].

Regarding `CC1CC(C)(C)c2c(C3CC3)ccc(NC(=O)c3c(C(F)F)nn(C)c3Cl)c21` (centres unmarked) [Example 16], the Eff. % was found to be 94% in the data set on Puccinia recondita and 95% in the data set with Uromyces appendiculatus. For the same compound, the logP was 4.57[a]; in data set [1] (method marked [a]) and 4.57[b] in data set [1] (method marked [b]). Taken in the same sequence, the figures for `Cc1ccc(NC(=O)c2c(C(F)F)nn(C)c2Cl)c2c1C(C)(C)CC2C` (centres unmarked) [Example 18] were 78%, 76%, 4.27[a]; and 4.2[b]. For `CON=C1CCc2c(NC(=O)c3c(C(F)F)nn(C)c3Cl)cccc21` [Example 25], in data set [1] (method marked [a]), the logP is 2.82[a]. Take `CCON=C1CCc2c(NC(=O)c3c(C(F)F)nn(C)c3F)cccc21` [Example 27]: the Eff. % in the data set with Puccinia recondita is reported as 72%. In addition, in data set [1] (method marked [a]), the logP is 3.06[a].

Compound `CON=C1CCc2c(NC(=O)c3c(C(F)F)nn(C)c3F)cccc21` [Example 29] came in with an Eff. % with Puccinia recondita of 98%. The logP in data set [1] (method marked [a]) is 2.59[a]. In the case of `CC1CC(C)(C)c2c(Br)ccc(NC(=O)c3c(C(F)F)nn(C)c3F)c21` (centres unmarked) [Example 38], the Eff. % with Puccinia recondita is 71%. Also, the logP was 4.45[a]; in data set [1] (method marked [a]) and 4.35[b] in data set [1] (method marked [b]).

Regarding `CC1CC(C)c2c(NC(=O)c3c(C(F)F)nn(C)c3Cl)cccc21` (centres unmarked) [Example 43], the Eff. % in the data set with Puccinia recondita stood at 98%; in the data set with Uromyces appendiculatus, 100%. On to `Cn1nc(C(F)F)c(C(=O)Nc2cccc3c2CC2CCCCC32)c1Cl` (centres unmarked) [Example 54], for which the Eff. % in the data set on Puccinia recondita came to 94%; with Uromyces appendiculatus, 100%. Further, in data set [1] (method marked [a]), the logP is 4.54[a].

On to `CON=C1CC(C)c2c(NC(=O)c3c(C(F)F)nn(C)c3F)cccc21` (centres unmarked) [Example 58], for which the Eff. % is on record as 75% with Puccinia recondita and 95% with Uromyces appendiculatus. For the same compound, the logP in data set [1] (method marked [a]) is 2.75[a].

In the case of `CC1Cc2c(NC(=O)c3c(C(F)F)nn(C)c3Cl)cccc2C1C` (centres unmarked) [Example 62], the Eff. % in the data set on Puccinia recondita is 94%; in the data set with Uromyces appendiculatus it was 100%. In data set [1] (method marked [a]), the logP is 3.87[a].

Take `CC1c2c(NC(=O)c3c(C(F)F)nn(C)c3Br)cccc2C(C)(C)C1C` (centres unmarked) [Example 65]: the Eff. % with Puccinia recondita came out at 94%; with Uromyces appendiculatus, 95%. Besides, the logP in data set [1] (method marked [a]) is 4.23[a]. `Cn1nc(C(F)F)c(C(=O)Nc2cccc3c2C(C)(C)CC3)c1F` [Example 100]: in data set [1] (method marked [a]), the logP was 3.31[a]. As to `CCC1(CC)CC(C)c2c(NC(=O)c3c(C(F)F)nn(C)c3Cl)cccc21` (centres unmarked) [Example 112], the logP in data set [1] (method marked [a]) was 4.82[a].

Regarding `CCC1(CC)CC(C)c2c(NC(=O)c3c(C(F)F)nn(C)c3F)cccc21` (centres unmarked) [Example 113], the logP in data set [1] (method marked [a]) was 4.56[a]. For the compound `CCC1(CC)CC(C)c2c(NC(=O)c3c(C(F)F)nn(C)c3Br)cccc21` (centres unmarked) [Example 114], in data set [1] (method marked [a]), the logP is 4.82[a].

As to `CCC1(C)CC(C)c2c(NC(=O)c3c(C(F)F)nn(C)c3Cl)cccc21` (centres unmarked) [Example 115], in data set [1] (method marked [a]), the logP is 4.46[a].

For `CCC1(C)CC(C)c2c(NC(=O)c3c(C(F)F)nn(C)c3F)cccc21` (centres unmarked) [Example 116], the logP in data set [1] (method marked [a]) is 4.16[a]. In the case of `CCC1(C)CC(C)c2c(NC(=O)c3c(C(F)F)nn(C)c3Br)cccc21` (centres unmarked) [Example 117], the logP in data set [1] (method marked [a]) was 4.44[a].

Regarding `CC(C)C1Cc2cccc(N)c2C1` (centres unmarked) [III-a-2], the logP in data set [1] (setting [2]) is 2.25[a]. For the compound `CC(C)C1Cc2c(N)cccc2C1(C)C` (centres unmarked) [III-a-3], in data set [1] (setting [2]), the logP is 2.8[a]. On to `Nc1cccc2c1CCC21CC1` [III-a-4], for which the logP in data set [1] (setting [2]) was 1.37[a]. As for `CC1CC(C)(C)c2c(Cl)ccc(N)c21` (centres unmarked) [III-a-5], the logP in data set [1] (setting [2]) is 3.68[a]. Still for that read-out and setting: then `CC1Cc2c(N)cccc2C1(C)C` (centres unmarked) [III-a-6], with 1.95[a]; and `Nc1cccc2c1CC1(CCCC1)C2` [III-a-7], with 2.1[a]; and `CC1CC(C)(C)c2c(C3CC3)ccc(N)c21` (centres unmarked) [III-a-8], with 2.81[a].

For `Cc1ccc(N)c2c1C(C)(C)CC2C` (centres unmarked) [III-a-9], the logP in data set [1] (setting [2]) is 2.16[a];; in data set [1] (setting [3]), 3.52[b]. As for `CC1CC(C)(C)c2c(I)ccc(N)c21` (centres unmarked) [III-a-10], the logP in data set [1] (setting [2]) was 4.1[a]. `CC(C)C1Cc2c(N)cccc2C1C` (centres unmarked) [III-a-11]: the logP in data set [1] (setting [2]) was 2.34[a]. With `CCCON=C1CCc2c(N)cccc21.Cl` [III-a-12], the logP in data set [1] (setting [2]) was 2.26[a].

For the compound `CCCCON=C1CCc2c(N)cccc21.Cl` [III-a-13], the logP in data set [1] (setting [2]) is 2.86[a]. In the case of `CON=C1CCc2c(N)cccc21.Cl` [III-a-14], the logP in data set [1] (setting [2]) was 1.26[a]. Consider `CCON=C1CCc2c(N)cccc21.Cl` [III-a-15], for which the logP in data set [1] (setting [2]) was 1.75[a].

As to `CC1CC(C(C)C)c2cccc(N)c21` (centres unmarked) [III-a-18], the logP in data set [1] (setting [2]) is 2.73[a]. In the case of `CC1CC(C(C)C)c2cccc(N)c21` (centres unmarked) [III-a-19], the logP in data set [1] (setting [2]) was 2.86[a]. Take `CC1CC(C)(C)c2c(Br)ccc(N)c21` (centres unmarked) [III-a-20]: the logP in data set [1] (setting [2]) is 3.85[a];; in data set [1] (setting [3]), 3.95[b].

Take `Nc1cccc2c1CC(Cc1ccccc1)C2` (centres unmarked) [III-a-21]: the logP in data set [1] (setting [2]) is 2.54[a]. As to `CC1CC(C)c2c(N)cccc21` (centres unmarked) [III-a-23], the logP in data set [1] (setting [2]) was 1.76[a]. Regarding `Nc1cccc2c1CC(C1CCCC1)C2` (centres unmarked) [III-a-28], the logP in data set [1] (setting [2]) was 2.94[a]. Regarding `CON=C1c2cccc(N)c2CC1(C)C.Cl` [III-a-32], the logP in data set [1] (setting [2]) is 2.08[a]. As to `CC1Cc2c(N)cccc2C1C` (centres unmarked) [III-a-33], the logP in data set [1] (setting [2]) is 1.44[a].

Consider `CC1c2c(N)cccc2C(C)(C)C1C` (centres unmarked) [III-a-34], for which the logP in data set [1] (setting [2]) is 2.28[a]. Consider `CC1CC(CC(C)(C)C)c2cccc(N)c21` (centres unmarked) [III-a-36], for which, in data set [1] (setting [2]), the logP was 3.83[a]. As to `CC(C)CC1CC(C)c2c(N)cccc21` (centres unmarked) [III-a-39], in data set [1] (setting [2]), the logP was 3.42[a]. With `CC1CC2(CCCCC2)c2cccc(N)c21` (centres unmarked) [III-a-44], in data set [1] (setting [2]), the logP was 3.35[a]. Same read-out and setting: the same measure for `CC(C)C1Cc2c(Br)cccc2C1(C)C` (centres unmarked) [III-b-3]: 6.7[a]; for `Brc1cccc2c1CCC21CC1` [III-b-4]: 4.86[a]; for `CCCCON=C1CCc2c(Br)cccc21` [III-b-8]: 5.71[a]. For the compound `CC1CC(C(C)C)c2cccc(Br)c21` (centres unmarked) [III-b-13], the logP in data set [1] (setting [2]) is 5.31[a]. Still for that read-out and setting: then `CC(C)CC1CCc2c(Br)cccc21` (centres unmarked) [III-b-16], with 6.57[a]; and `CC1CC2(CC2)c2cccc(Br)c21` (centres unmarked) [III-b-20], with 5.28[a]; and `CON=C1CCc2c(Br)cccc21` [III-b-24], with 4.23[a].

For the compound `CCC1Cc2c(Br)cccc2C1(C)C` (centres unmarked) [III-b-29], the logP in data set [1] (setting [2]) is 6.28[a].
